Key:
[1] = system: phosphorylation of RNA polymerase II at Ser2; assay: Washout experiment, RNA polymerase II Ser2 phosphorylation (immunoblot); format: cell-based, human; settings: VCaP cells; YJZ5118 100 nM
Method: (§1) The previously reported reversible inhibitor 10 was included for comparison. VCaP cells were treated with the compounds for 6 h, after which the compounds were removed, and the cells were cultured in compound-free media for 5 days.
Generally, after incubation with the compounds for the indicated time, the tested cells were washed by cold PBS buffer (Gibco) and lysed with RIPA buffer (ThermoFisher Scientific) supplemented with cOmplete protease inhibitor cocktail tablets (Sigma-Aldrich). The cell lysate was treated with ultrasonic for 20s, following a centrifugation of 14000 rpm at 4°C for 10 min. The protein concentration was measured by BCA protein assay (DC Protein Assay, BIO-RAD). An equal amount of protein was loaded to 4–12% Bis-Tris gels and underwent SDS-PAGE electrophoresis at 120 V for 90 min. The proteins were transferred to a nitrocellulose (NC) membrane (Thermo Scientific) and the membranes were blocked in 5% milk buffer at room temperature for 1h, followed by incubating with primary antibody at the recommended dilution at 4°C for overnight. The membranes were washed by PBST for three times and incubated with anti-rabbit or anti-mouse HRP-conjugated secondary antibody for 1h at room temperature, after which the membranes were imaged by Odyssey CLx Imager (LiCOR Biosciences).

CDK9/CycK = target: T1, CDK9/CycK (Homo sapiens, UniProt P50750); assay: CDK family panel, ADP-Glo; format: biochemical
T1 construct: ICE Bioscience Inc. (assay service)
Method: (§3) All the kinase activity were performed using an ADP-Glo kinase assay by ICE Bioscience Inc. (Beijing, China).

CDK6/CycD1 = target: T2, CDK6/CycD1 (Homo sapiens, UniProt Q00534); assay: CDK family panel, ADP-Glo; format: biochemical
T2 construct: ICE Bioscience Inc. (assay service)
Method: (§4) All the kinase activity were performed using an ADP-Glo kinase assay by ICE Bioscience Inc. (Beijing, China). Kinome selectivity profiles (KINOMEscan profiling) and Kd detection were performed by Eurofins DiscoveryX Corporation (San Diego, CA, USA).

CDK3/CycC = target: T3, CDK3/CycC (Homo sapiens, UniProt Q00526); assay: CDK family panel, ADP-Glo; format: biochemical
T3 construct: ICE Bioscience Inc. (assay service)
Method: as §3

CDK7/CycH/MAT1 = target: T4, CDK7/CycH/MAT1 (Homo sapiens, UniProt P50613); assay: CDK family panel, ADP-Glo; format: biochemical
T4 construct: ICE Bioscience Inc. (assay service)
Method: as §3

CDK14/CycY = target: T5, CDK14/CycY (Homo sapiens, UniProt O94921); assay: CDK family panel, ADP-Glo; format: biochemical
T5 construct: ICE Bioscience Inc. (assay service)
Method: as §3

CDK5/p35NCK = target: T6, CDK5/p35NCK (Homo sapiens, UniProt Q00535); assay: CDK family panel, ADP-Glo; format: biochemical
T6 construct: ICE Bioscience Inc. (assay service)
Method: as §4

CDK5/p25NCK = target: T7, CDK5/p25NCK (Homo sapiens, UniProt Q00535); assay: CDK family panel, ADP-Glo; format: biochemical
T7 construct: ICE Bioscience Inc. (assay service)
Method: as §3

CDK18/CycY = target: T8, CDK18/CycY (Homo sapiens, UniProt Q07002); assay: CDK family panel, ADP-Glo; format: biochemical
T8 construct: ICE Bioscience Inc. (assay service)
Method: as §4

CDK8/CycC = target: T9, CDK8/CycC (Homo sapiens, UniProt P49336); assay: CDK family panel, ADP-Glo; format: biochemical
T9 construct: ICE Bioscience Inc. (assay service)
Method: as §3

[2] = system: VCaP prostate cancer cells; assay: Cell proliferation assay (CellTiter-Glo), VCaP; format: cell-based, human; settings: cell growth inhibition, 5 days, CellTiter-Glo
Method: The kinase inhibitory activities of the compounds against CDK12 and CDK13 were preliminarily evaluated using the ADP-Glo kinase assay. Cell growth inhibition was determined in VCaP prostate cancer cells, which were characterized as being sensitive to CDK12/13 inhibition.[14]
(§2) Cells were seeded in 96-well plates and incubated at 37 °C and 5% CO2. After overnight incubation, serial dilutions of tested compounds were added to the plate. The assay was tested with Cell Titer-Glo (Promega) after 5 days. The luminescence signal was detected by the Infinite M1000 Pro plate reader (Tecan), and the IC50 values were calculated by GraphPad Prism 10.

VCaP cells = assay: Washout experiment, cell growth; format: cell-based, human; settings: VCaP cells treated 6 h, compound removed, 5 days in compound-free media
Method: as §1

CDK1/CycA2 = target: T10, CDK1/CycA2 (Homo sapiens, UniProt P06493); assay: CDK family panel, ADP-Glo; format: biochemical
T10 construct: ICE Bioscience Inc. (assay service)
Method: as §3

CDK2/CycA2 = target: T11, CDK2/CycA2 (Homo sapiens, UniProt P24941); assay: CDK family panel, ADP-Glo; format: biochemical
T11 construct: ICE Bioscience Inc. (assay service)
Method: as §3

CDK3/CycE1 = target: T12, CDK3/CycE1 (Homo sapiens, UniProt Q00526); assay: CDK family panel, ADP-Glo; format: biochemical
T12 construct: ICE Bioscience Inc. (assay service)
Method: as §4

CDK15/CycY = target: T13, CDK15/CycY (Homo sapiens, UniProt Q96Q40); assay: CDK family panel, ADP-Glo; format: biochemical
T13 construct: ICE Bioscience Inc. (assay service)
Method: as §3

TAOK3 = target: T14, TAOK3 (Homo sapiens, UniProt Q9H2K8); assay: ADP-Glo assay, TAOK3; format: biochemical; settings: read-out: IC50 against TAOK3
T14 construct: ICE Bioscience Inc. (assay service)

[3] = system: normal and non-neoplastic cells; assay: Cell viability panel; format: cell-based, human; settings: 5 days of treatment, compared with sensitive cancer cells
Method: as §2

CDK1/CycE1 = target: T15, CDK1/CycE1 (Homo sapiens, UniProt P06493); assay: CDK family panel, ADP-Glo; format: biochemical
T15 construct: ICE Bioscience Inc. (assay service)
Method: as §3

MFM223 = assay: Cell viability panel; format: cell-based; settings: Homo sapiens, MFM-223, 120 h; breast cancer cells, 5 days of treatment
Method: as §2

CB-AGPN = assay: Cell viability panel; format: cell-based; settings: Homo sapiens, 120 h; Ewing's sarcoma cells, 5 days of treatment
Method: as §2

SK-BR-3 = assay: Cell viability panel; format: cell-based; settings: Homo sapiens, SK-BR-3, 120 h; breast cancer cells, 5 days of treatment
Method: as §2

MDA-MD-468 = assay: Cell viability panel; format: cell-based; settings: Homo sapiens, 120 h; breast cancer cells, 5 days of treatment
Method: as §2

CHLA10 = assay: Cell viability panel; format: cell-based; settings: Homo sapiens, 120 h; Ewing's sarcoma cells, 5 days of treatment
Method: as §2

DU145 = assay: Cell viability panel; format: cell-based; settings: Homo sapiens, DU-145, 120 h; prostate cancer cells, 5 days of treatment
Method: as §2

CDK4/CycD1 = target: T16, CDK4/CycD1 (Homo sapiens, UniProt P11802); assay: CDK family panel, ADP-Glo; format: biochemical
T16 construct: ICE Bioscience Inc. (assay service)
Method: as §4

CDK2/CycE1 = target: T17, CDK2/CycE1 (Homo sapiens, UniProt P24941); assay: CDK family panel, ADP-Glo; format: biochemical
T17 construct: ICE Bioscience Inc. (assay service)
Method: as §3

CDK9/CycT1 = target: T18, CDK9/CycT1 (Homo sapiens, UniProt P50750); assay: CDK family panel, ADP-Glo; format: biochemical
T18 construct: ICE Bioscience Inc. (assay service)
Method: as §3

T3 sequence (Q00526 whole entry, species assumed): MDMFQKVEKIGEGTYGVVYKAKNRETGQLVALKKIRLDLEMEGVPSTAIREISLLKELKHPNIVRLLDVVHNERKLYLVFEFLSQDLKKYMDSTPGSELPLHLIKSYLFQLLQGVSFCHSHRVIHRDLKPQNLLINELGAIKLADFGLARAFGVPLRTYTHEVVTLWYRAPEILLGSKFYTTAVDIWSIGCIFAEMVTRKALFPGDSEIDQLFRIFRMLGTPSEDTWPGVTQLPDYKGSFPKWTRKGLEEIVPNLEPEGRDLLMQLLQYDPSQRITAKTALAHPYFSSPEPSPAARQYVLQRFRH
T3 sequence (P24863 whole entry partner, species assumed): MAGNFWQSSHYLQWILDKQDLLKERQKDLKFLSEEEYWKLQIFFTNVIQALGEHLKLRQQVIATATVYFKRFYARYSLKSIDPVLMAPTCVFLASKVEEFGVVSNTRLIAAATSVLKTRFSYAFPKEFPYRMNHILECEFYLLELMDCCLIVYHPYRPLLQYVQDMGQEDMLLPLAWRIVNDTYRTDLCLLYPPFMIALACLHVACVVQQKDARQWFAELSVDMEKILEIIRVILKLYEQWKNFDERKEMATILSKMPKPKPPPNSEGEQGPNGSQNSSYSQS
T9 sequence (P49336 whole entry, species assumed): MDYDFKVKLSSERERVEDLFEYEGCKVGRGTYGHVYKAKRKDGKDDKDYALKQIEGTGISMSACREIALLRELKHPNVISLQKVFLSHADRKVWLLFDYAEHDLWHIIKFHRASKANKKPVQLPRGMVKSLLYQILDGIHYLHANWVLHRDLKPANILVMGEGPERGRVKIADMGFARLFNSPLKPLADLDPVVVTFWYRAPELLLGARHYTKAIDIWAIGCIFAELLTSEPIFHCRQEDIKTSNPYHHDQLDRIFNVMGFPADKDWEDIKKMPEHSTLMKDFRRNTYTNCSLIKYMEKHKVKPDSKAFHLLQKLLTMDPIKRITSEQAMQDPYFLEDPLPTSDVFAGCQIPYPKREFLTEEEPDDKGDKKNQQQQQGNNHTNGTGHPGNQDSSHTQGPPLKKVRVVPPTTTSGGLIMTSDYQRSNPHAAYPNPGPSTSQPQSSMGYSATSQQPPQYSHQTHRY
T9 sequence (P24863 whole entry partner, species assumed): as the sequence (P24863 whole entry partner, species assumed) above
T2 sequence (Q00534 whole entry, species assumed): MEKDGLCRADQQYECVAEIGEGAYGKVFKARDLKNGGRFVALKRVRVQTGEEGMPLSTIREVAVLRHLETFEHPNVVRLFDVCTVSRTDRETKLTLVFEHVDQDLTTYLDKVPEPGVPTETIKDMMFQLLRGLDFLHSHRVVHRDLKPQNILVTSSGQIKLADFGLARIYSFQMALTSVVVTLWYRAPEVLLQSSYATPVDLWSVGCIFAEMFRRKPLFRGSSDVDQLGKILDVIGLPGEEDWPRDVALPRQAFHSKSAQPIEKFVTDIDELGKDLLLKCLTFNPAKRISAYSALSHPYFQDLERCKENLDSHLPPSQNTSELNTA
T2 sequence (P24385 whole entry partner, species assumed): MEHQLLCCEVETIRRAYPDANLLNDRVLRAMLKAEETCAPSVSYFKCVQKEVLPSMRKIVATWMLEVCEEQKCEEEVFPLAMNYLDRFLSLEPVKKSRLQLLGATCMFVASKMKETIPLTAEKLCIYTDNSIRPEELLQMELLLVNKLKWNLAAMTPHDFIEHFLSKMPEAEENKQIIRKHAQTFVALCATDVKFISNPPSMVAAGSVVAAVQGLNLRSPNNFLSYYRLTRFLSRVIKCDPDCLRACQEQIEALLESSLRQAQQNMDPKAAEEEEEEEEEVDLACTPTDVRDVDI
T16 sequence (P11802 whole entry, species assumed): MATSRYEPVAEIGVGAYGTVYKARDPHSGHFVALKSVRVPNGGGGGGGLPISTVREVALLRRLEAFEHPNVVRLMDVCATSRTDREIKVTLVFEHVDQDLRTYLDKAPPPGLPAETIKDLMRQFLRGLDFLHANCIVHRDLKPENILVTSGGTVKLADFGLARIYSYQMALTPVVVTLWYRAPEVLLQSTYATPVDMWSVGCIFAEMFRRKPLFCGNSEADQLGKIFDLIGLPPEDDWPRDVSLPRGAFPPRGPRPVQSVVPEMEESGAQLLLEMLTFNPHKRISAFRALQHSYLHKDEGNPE
T16 sequence (P24385 whole entry partner, species assumed): as the sequence (P24385 whole entry partner, species assumed) above
T8 sequence (Q07002 whole entry, species assumed): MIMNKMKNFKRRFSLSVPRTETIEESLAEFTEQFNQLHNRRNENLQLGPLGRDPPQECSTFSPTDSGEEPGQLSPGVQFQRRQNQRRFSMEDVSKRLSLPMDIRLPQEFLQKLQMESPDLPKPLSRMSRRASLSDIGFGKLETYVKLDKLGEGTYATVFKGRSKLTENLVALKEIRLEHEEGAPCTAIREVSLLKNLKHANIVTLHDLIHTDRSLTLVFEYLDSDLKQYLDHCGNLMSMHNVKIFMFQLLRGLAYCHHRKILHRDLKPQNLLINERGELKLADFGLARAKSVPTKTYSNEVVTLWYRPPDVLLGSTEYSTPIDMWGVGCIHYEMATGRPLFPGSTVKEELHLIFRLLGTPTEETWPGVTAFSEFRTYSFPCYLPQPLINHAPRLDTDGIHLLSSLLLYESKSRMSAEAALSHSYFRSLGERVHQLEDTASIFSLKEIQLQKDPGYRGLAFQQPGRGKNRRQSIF
T8 sequence (Q8ND76 whole entry partner, species assumed): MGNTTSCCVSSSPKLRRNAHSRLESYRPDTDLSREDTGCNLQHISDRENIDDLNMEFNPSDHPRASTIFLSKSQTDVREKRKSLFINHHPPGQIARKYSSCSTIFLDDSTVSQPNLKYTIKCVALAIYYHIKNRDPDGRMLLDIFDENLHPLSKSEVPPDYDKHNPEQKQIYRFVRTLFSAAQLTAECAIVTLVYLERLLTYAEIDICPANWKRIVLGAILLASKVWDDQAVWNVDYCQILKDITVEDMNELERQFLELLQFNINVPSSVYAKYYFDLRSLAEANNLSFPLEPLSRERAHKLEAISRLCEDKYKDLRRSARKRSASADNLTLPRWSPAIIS
T14 sequence (Q9H2K8 whole entry, species assumed): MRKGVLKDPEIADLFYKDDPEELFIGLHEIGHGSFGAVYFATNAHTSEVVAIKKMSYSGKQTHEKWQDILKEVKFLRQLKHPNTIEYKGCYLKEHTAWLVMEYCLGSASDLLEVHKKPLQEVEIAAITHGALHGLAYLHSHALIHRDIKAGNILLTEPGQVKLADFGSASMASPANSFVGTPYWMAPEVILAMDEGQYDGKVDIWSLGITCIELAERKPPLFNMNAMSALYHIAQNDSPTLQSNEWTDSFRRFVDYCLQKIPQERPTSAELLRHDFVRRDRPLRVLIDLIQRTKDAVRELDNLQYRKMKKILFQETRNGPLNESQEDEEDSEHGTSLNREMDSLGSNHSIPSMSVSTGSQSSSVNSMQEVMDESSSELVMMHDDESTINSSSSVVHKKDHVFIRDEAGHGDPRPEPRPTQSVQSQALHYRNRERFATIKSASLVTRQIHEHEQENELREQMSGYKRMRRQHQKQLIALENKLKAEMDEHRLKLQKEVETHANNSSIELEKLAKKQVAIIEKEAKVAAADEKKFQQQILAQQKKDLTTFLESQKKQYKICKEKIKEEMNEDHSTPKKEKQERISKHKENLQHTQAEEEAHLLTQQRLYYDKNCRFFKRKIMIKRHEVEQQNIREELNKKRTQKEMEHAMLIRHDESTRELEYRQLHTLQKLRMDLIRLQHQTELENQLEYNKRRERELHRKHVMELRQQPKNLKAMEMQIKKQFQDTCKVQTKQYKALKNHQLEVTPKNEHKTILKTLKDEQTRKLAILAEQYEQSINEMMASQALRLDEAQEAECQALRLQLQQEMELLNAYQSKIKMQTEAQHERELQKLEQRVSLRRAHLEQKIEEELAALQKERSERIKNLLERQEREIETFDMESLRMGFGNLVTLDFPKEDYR
T13 sequence (Q96Q40 whole entry, species assumed): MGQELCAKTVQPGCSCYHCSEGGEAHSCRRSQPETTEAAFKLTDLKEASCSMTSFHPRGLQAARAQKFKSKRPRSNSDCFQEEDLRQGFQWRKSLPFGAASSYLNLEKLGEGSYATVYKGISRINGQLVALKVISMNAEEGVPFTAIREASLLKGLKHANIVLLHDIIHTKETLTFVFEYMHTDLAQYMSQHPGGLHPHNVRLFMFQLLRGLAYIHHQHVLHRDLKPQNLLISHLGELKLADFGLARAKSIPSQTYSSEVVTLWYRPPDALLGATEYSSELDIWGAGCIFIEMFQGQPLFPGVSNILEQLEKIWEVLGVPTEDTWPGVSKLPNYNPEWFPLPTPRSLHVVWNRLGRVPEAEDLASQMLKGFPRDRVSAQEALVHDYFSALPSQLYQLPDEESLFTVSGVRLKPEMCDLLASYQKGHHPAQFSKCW
T13 sequence (Q8ND76 whole entry partner, species assumed): as the sequence (Q8ND76 whole entry partner, species assumed) above
T5 sequence (O94921 whole entry, species assumed): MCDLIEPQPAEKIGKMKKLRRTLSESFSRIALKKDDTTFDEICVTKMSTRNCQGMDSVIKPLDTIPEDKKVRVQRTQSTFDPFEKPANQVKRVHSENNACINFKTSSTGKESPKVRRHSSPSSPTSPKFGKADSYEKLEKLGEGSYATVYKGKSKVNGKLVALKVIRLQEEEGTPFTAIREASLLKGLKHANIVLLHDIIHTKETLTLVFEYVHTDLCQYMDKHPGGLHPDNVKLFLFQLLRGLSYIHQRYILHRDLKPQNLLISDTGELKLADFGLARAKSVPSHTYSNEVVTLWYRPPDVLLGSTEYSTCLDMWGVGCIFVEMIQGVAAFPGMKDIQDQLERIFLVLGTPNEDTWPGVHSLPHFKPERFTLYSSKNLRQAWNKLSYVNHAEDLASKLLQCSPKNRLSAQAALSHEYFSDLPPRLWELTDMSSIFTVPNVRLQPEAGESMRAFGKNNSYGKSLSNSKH
T5 sequence (Q8ND76 whole entry partner, species assumed): as the sequence (Q8ND76 whole entry partner, species assumed) above

IC50 (CDK9/CycK): 7160 nM | IC50 (CDK6/CycD1): 4480 nM | IC50 (CDK3/CycC): > 10000 nM | IC50 (CDK7/CycH/MAT1): 2260 nM | IC50 (CDK14/CycY): > 10000 nM | IC50 (CDK5/p35NCK): > 10000 nM | IC50 (CDK5/p25NCK): > 10000 nM | IC50 (CDK18/CycY): > 10000 nM | IC50 (CDK8/CycC): > 10000 nM | IC50 ([2]; Homo sapiens, VCaP, 120 h): < 40 nM | IC50 ([2]; listed as 14k (YJZ5118)): 23.7 nM | IC50 (CDK1/CycA2): > 10000 nM | IC50 (CDK2/CycA2): > 10000 nM | IC50 (CDK3/CycE1): > 10000 nM | IC50 (CDK15/CycY): > 10000 nM | IC50 (TAOK3): > 10 µM | IC50 (CDK1/CycE1): > 10000 nM | IC50 (SK-BR-3): < 0.04 µM | IC50 (DU145): < 0.04 µM | IC50 (CDK4/CycD1): 3390 nM | IC50 (CDK2/CycE1): > 10000 nM | IC50 (CDK9/CycT1): 4910 nM
SMILES: C=CC(=O)Nc1cc(N(C(=O)NCc2ccccc2)[C@H]2CC[C@H](Nc3ccc(C#N)cn3)CC2)ccc1N1CCC(N(C)C)CC1 [YJZ5118, N-(5-(3-benzyl-1-((1r,4r)-4-((5-cyanopyridin-2-yl)amino)cyclohexyl)ureido)-2-(4-(dimethylamino)piperidin-1-yl)phenyl)acrylamide]
RNA polymerase II Ser2 phosphorylation after washout [1]: complete loss of phosphorylation observed at 15 h after washout | cell growth inhibitory effect after washout (VCaP cells): maintained potent antiproliferative activity | sensitivity of normal and non-neoplastic cells [3]: much lower sensitive | IC50 (MFM223): < 0.04 µM | IC50 (CB-AGPN): < 0.04 µM | IC50 (MDA-MD-468): < 0.04 µM | IC50 (CHLA10): < 0.04 µM
